Columns and labels:
[1] = biological target: KHK-C expressed in NRK-52E cells (Homo sapiens (Human), UniProt P50053); test: KHK-C Cell-based Assay (EC50), NRK CTG, fructose-mediated ATP-depletion
human KHK-C = human KHK-C (Homo sapiens (Human), UniProt P50053); test: KHK Biochemical Assay (IC50), ADP-Glo, KHK-C; settings: average of at least two separate assays
In short: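 His-tagged enzyme expressed in BL21 (DE3), Ni-NTA purified. Compounds, serially diluted 1:3 in DMSO, pre-incubated 30 min with enzyme in 50 mM Hepes pH 7.4, 140 mM KCl, 5 mM MgCl2, 0.01% Triton-X, then ATP and fructose added; 4 h at room temperature. ADP formation read by ADP-Glo luminescence.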

Sequence of human KHK-C (P50053 whole entry): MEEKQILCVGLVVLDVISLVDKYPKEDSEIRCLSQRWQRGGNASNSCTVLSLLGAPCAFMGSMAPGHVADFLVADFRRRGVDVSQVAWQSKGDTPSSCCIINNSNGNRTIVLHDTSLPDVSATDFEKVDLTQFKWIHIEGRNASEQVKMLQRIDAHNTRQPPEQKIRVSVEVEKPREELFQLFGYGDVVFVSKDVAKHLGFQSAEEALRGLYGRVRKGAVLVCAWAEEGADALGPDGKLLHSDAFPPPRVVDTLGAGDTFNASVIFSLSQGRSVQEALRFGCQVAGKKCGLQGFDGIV
Sequence of KHK-C expressed in NRK-52E cells (P50053 whole entry): as above

SMILES	EC50 [1]	IC50 (human KHK-C)
CC12CCC(CC1)N2c1nc2c(c(-c3ccc(C(N)=O)cc3)n1)CCC2 [Example 398, 4-(2-(-1-methyl-7-azabicyclo[2.2.1]heptan-7-yl)-6,7-dihydro-5H-cyclopenta[d]pyrimidin-4-yl)benzamide]	> 5000 nM	> 5000 nM
C[C@H]1CCN1c1nc2c(c(-c3cccc(S(C)(=O)=O)c3)n1)CCC2 [Example 399, (S)-2-(2-methylazetidin-1-yl)-4-(3-(methylsulfonyl)phenyl)-6,7-dihydro-5H-cyclopenta[d]pyrimidine]	138 nM	74.3 nM
NC(=O)c1ccc(-c2nc(N3CCCC34CC4)nc3c2CCC3)cc1 [Example 402, 4-(2-(4-azaspiro[2.4]heptan-4-yl)-6,7-dihydro-5H-cyclopenta[d]pyrimidin-4-yl)benzamide]	1590 nM	3760 nM
C[C@H]1CCCN1c1nc2c(c(-c3ccc(C(N)=O)cc3)n1)CCC2 [Example 403, (S)-4-(2-(2-methylpyrrolidin-1-yl)-6,7-dihydro-5H-cyclopenta[d]pyrimidin-4-yl)benzamide]	242 nM	218 nM
C[C@@H]1CCCN1c1nc2c(c(-c3ccc(C(N)=O)cc3)n1)CCC2 [Example 404, (R)-4-(2-(2-methylpyrrolidin-1-yl)-6,7-dihydro-5H-cyclopenta[d]pyrimidin-4-yl)benzamide]	> 5000 nM	> 5000 nM
NC(=O)c1ccc(-c2nc(N3CCC3)nc3c2CCC3)cc1 [Example 405, 4-(2-(azetidin-1-yl)-6,7-dihydro-5H-cyclopenta[d]pyrimidin-4-yl)benzamide]	4770 nM	2470 nM
CSCC1CCN1c1nc2c(c(-c3ccc(C(N)=O)cc3)n1)CCC2 (stereo not drawn) [Example 415, 4-(2-(2-((methylthio)methyl)azetidin-1-yl)-6,7-dihydro-5H-cyclopenta[d]pyrimidin-4-yl)benzamide]	> 5000 nM	> 5000 nM
NC(=O)c1ccc(-c2nc(N3CCCC3=O)nc3c2CCC3)cc1 [Example 418, 4-(2-(2-oxopyrrolidin-1-yl)-6,7-dihydro-5H-cyclopenta[d]pyrimidin-4-yl)benzamide]	> 5000 nM	> 5000 nM
C[C@H]1CCN1c1nc2c(c(-c3cccc(C4=CS(=O)(=O)C4)c3)n1)CCC2 [Example 420, (S)-3-(3-(2-(2-methylazetidin-1-yl)-6,7-dihydro-5H-cyclopenta[d]pyrimidin-4-yl)phenyl)-2H-thiete 1,1-dioxide]	382 nM	61.8 nM
C[C@H]1CCN1c1nc2c(c(-c3cccc(C4CS(=O)(=O)C4)c3)n1)CCC2 [Example 421, (S)-3-(3-(2-(2-methylazetidin-1-yl)-6,7-dihydro-5H-cyclopenta[d]pyrimidin-4-yl)phenyl)thietane 1,1-dioxide]	297 nM	67 nM
C[C@H]1CCN1c1nc2c(c(-c3ccc4c(c3)CS(=O)(=O)C4)n1)CCC2 [Example 422, (S)-5-(2-(2-methylazetidin-1-yl)-6,7-dihydro-5H-cyclopenta[d]pyrimidin-4-yl)-1,3-dihydrobenzo[c]thiophene 2,2-dioxide]	240 nM	95 nM
C[C@H]1CCN1c1nc2c(c(-c3cccc([C@@H]4[C@@H](C(=O)O)C4(C)C)c3)n1)CCC2 [Example 435, (1R,3R)-2,2-dimethyl-3-(3-(2-((S)-2-methylazetidin-1-yl)-6,7-dihydro-5H-cyclopenta[d]pyrimidin-4-yl)phenyl)cyclopropane-1-carboxylic acid]	78.4 nM	5.4 nM
CC(C)(O)[C@H]1CCN1c1nc2c(c(-c3ccc(C(N)=O)cc3)n1)CCC2 [Example 436, 4-[2-[(2R)-2-(1-hydroxy-1-methyl-ethyl)azetidin-1-yl]-6,7-dihydro-5H-cyclopenta[d]pyrimidin-4-yl]benzamide]	2940 nM	2730 nM
CC(C)C[C@H]1C(F)CN1c1nc2c(c(-c3ccc(C(N)=O)cc3)n1)CCC2 (stereo partly drawn) [Example 437, 4-[2-[(2S)-3-fluoro-2-isobutyl-azetidin-1-yl]-6,7-dihydro-5H-cyclopenta[d]pyrimidin-4-yl]benzamide]	> 5000 nM	> 5000 nM
C[C@@H](OCc1ccccc1)[C@H]1C(O)CN1c1nc2c(c(-c3ccc(C(N)=O)cc3)n1)CCC2 (stereo partly drawn) [Example 438, 4-[2-[(2R)-2-[(1R)-1-benzyloxyethyl]-3-hydroxy-azetidin-1-yl]-6,7-dihydro-5H-cyclopenta[d]pyrimidin-4-yl]benzamide]	> 5000 nM	> 5000 nM
NC(=O)c1ccc(-c2nc(N3CC[C@@H]3C(=O)O)nc3c2CCC3)cc1 [Example 442, (2R)-1-[4-(4-carbamoylphenyl)-6,7-dihydro-5H-cyclopenta[d]pyrimidin-2-yl]azetidine-2-carboxylic acid]	2730 nM	1580 nM
C[C@H]1CCN1c1nc2c(c(-c3cc(Cl)cc([C@H]4C[C@@H]4C(=O)O)c3)n1)CCC2 [Example 443, (1S,2S)-2-[3-chloro-5-[2-[(2S)-2-methylazetidin-1-yl]-6,7-dihydro-5H-cyclopenta[d]pyrimidin-4-yl]phenyl]cyclopropanecarboxylic acid]	53.8 nM	4.2 nM
C[C@H]1[C@H](O)CN1c1nc2c(c(-c3ccc(C(N)=O)cc3)n1)CC(F)(F)CC2 [Example 444, 4-(6,6-difluoro-2-((2S,3R)-3-hydroxy-2-methylazetidin-1-yl)-5,6,7,8-tetrahydroquinazolin-4-yl)benzamide]	> 5000 nM	> 5000 nM
CS(=O)(=O)NC[C@H]1CCN1c1nc2c(c(-c3ccc(C(N)=O)cc3)n1)CCC2 [Example 457, 4-[2-[(2R)-2-(methanesulfonamidomethyl)azetidin-1-yl]-6,7-dihydro-5H-cyclopenta[d]pyrimidin-4-yl]benzamide]	> 5000 nM	954 nM
C[C@H]1[C@H](O)CN1c1nc(-c2ccc3c(c2)OCCNS3(=O)=O)c2c(n1)C(F)(F)CC2 [Example 500]	238 nM	48.6 nM
CC1CCC1c1nc2c(c(-c3ccc(C(N)=O)cc3)n1)CCC2 (stereo not drawn) [Example 501, 4-(2-(2-methylcyclobutyl)-6,7-dihydro-5H-cyclopenta[d]pyrimidin-4-yl)benzamide]	597 nM	212 nM
CC1(c2nc3c(c(-c4ccc(C(N)=O)cc4)n2)CCC3)CCC1 [Example 502, 4-(2-(1-methylcyclobutyl)-6,7-dihydro-5H-cyclopenta[d]pyrimidin-4-yl)benzamide]	2000 nM	768 nM
C[C@H]1[C@H](O)CN1c1nc(-c2ccc(C3(N)COC3)c(F)c2)c2c(n1)C(F)(F)CC2 [Example 503, (2S,3R)-1-(4-(4-(3-aminooxetan-3-yl)-3-fluorophenyl)-7,7-difluoro-6,7-dihydro-5H-cyclopenta[d]pyrimidin-2-yl)-2-methylazetidin-3-ol]	26.7 nM	5 nM
Cc1cc(-c2nc(N3C[C@@H](O)[C@@H]3C)nc3c2CCC3(F)F)ccc1C1(N)COC1 [Example 505, (2S,3R)-1-(4-(4-(3-aminooxetan-3-yl)-3-methylphenyl)-7,7-difluoro-6,7-dihydro-5H-cyclopenta[d]pyrimidin-2-yl)-2-methylazetidin-3-ol]	11.9 nM	2.4 nM

Reference: patent publication US12410160B2 (Gilead Sciences, Inc., priority 2021, dated 2025)
